System: A2780
Experiment: Anticancer activity against human A2780 cells assessed as inhibition of cell growth measured after 48 hrs by MTT assay
Type: functional, cell-based
Conditions: A2780, 48 h

IC50	SMILES
89 µM	O=C1CCCC[C@H]1[C@H](c1ccccc1)C(F)[N+](=O)[O-] (some centres not stated)
> 100 µM	O=C1CCCC[C@H]1[C@@H](C[N+](=O)[O-])c1ccccc1
